Data taken from ChEMBL document CHEMBL5331051, “Cationic, amphipathic small molecules based on a triazine-piperazine-triazine scaffold as a new class of antimicrobial agents” (Eur J Med Chem, 2022).
Values after ≈ are worked out from the molar mass of the structure shown. Active and inactive are the calls of the source. The rule behind the calls is not given here.

Legend:
Escherichia coli [1] = experiment: Antibacterial activity against Escherichia coli KCTC 1682 strain assessed as bacterial growth inhibition measured at 18 to 24 hrs in presence of 1 mM MgCl2 by microdilution assay; type: functional; details: time 18-24 hrs
Cell membrane = experiment: Induction of cell membrane damage in Escherichia coli KCTC 1682 assessed as increase in fluorescent intensity at 2 times MIC incubated for 30 mins by PI staining based flow cytometry assay (reference value: 9.79 %); type: subcellular
Erythrocyte = experiment: Hemolytic activity in sheep RBC assessed as minimal hemolytic concentration causing 10% hemolysis incubated for 1 hr by ELISA; type: toxicity, cell-based, Ovis aries
Pseudomonas aeruginosa [2] = experiment: Synergistic antibacterial activity against multidrug-resistant Pseudomonas aeruginosa CCARM 2095 strain assessed as fractional inhibitory concentration index in presence of oxacillin by checkerboard assay; type: functional
Pseudomonas aeruginosa [3] = experiment: Synergistic antibacterial activity against multidrug-resistant Pseudomonas aeruginosa CCARM 2095 strain assessed as bacterial growth inhibition in presence of chloramphenicol by checkerboard assay; type: functional
Pseudomonas aeruginosa [4] = experiment: Antibacterial activity against multidrug-resistant Pseudomonas aeruginosa CCARM 2095 strain assessed as bacterial growth inhibition measured at 18 to 24 hrs by microdilution assay; type: functional; details: time 18-24 hrs
Staphylococcus aureus [5] = experiment: Synergistic antibacterial activity against methicillin-resistant Staphylococcus aureus CCARM 3089 strain assessed as ciprofloxacin MIC by checkerboard assay; type: functional
Staphylococcus aureus [6] = experiment: Synergistic antibacterial activity against methicillin-resistant Staphylococcus aureus CCARM 3089 strain assessed as fractional inhibitory concentration in presence of ciprofloxacin by checkerboard assay; type: functional
Enterococcus faecium = experiment: Antibacterial activity against vancomycin-resistant Enterococcus faecium ATCC 51559 strain assessed as bacterial growth inhibition measured at 18 to 24 hrs by microdilution assay; type: functional; details: time 18-24 hrs
Staphylococcus aureus [7] = experiment: Antibacterial activity against Staphylococcus aureus KCTC 1621 strain assessed as bacterial growth inhibition measured at 18 to 24 hrs in presence of 20% human serum by microdilution assay; type: functional; details: time 18-24 hrs
Escherichia coli [8] = experiment: Antibacterial activity against Escherichia coli KCTC 1682 strain assessed as bacterial growth inhibition measured at 18 to 24 hrs in presence of 4 uM FeCl3 by microdilution assay; type: functional; details: time 18-24 hrs
Pseudomonas aeruginosa [9] = experiment: Synergistic antibacterial activity against multidrug-resistant Pseudomonas aeruginosa CCARM 2095 strain assessed as chloramphenicol MIC by checkerboard assay; type: functional
Staphylococcus aureus [10] = experiment: Synergistic antibacterial activity against multidrug-resistant Staphylococcus aureus CCARM 3089 strain assessed as fractional inhibitory concentration index in presence of ciprofloxacin by checkerboard assay; type: functional
Escherichia coli [11] = experiment: Antibacterial activity against Escherichia coli KCTC 1682 strain assessed as bacterial growth inhibition measured after 6 hrs in presence of trypsin by radial diffusion assay; type: functional, organism-based
Escherichia coli [12] = experiment: Antibacterial activity against Escherichia coli KCTC 1682 strain assessed as bacterial growth inhibition measured after 6 hrs in presence of proteinase K by radial diffusion assay; type: functional, organism-based
RAW264.7 [13] = experiment: Antiinflammatory activity in LPS-induced mouse RAW264.7 cells assessed as reduction in TNF alpha mRNA expression level at 20 ug/ml measured after 18 hrs by RT-PCR assay relative to control; type: functional, cell-based; details: dose 20.0 µg/ml
Pseudomonas aeruginosa [14] = experiment: Synergistic antibacterial activity against multidrug-resistant Pseudomonas aeruginosa CCARM 2095 strain assessed as ciprofloxacin MIC by checkerboard assay; type: functional
Escherichia coli [15] = experiment: Antibacterial activity against Escherichia coli KCTC 1682 strain assessed as bacterial growth inhibition measured at 18 to 24 hrs in presence of 4.5 mM KCl by microdilution assay; type: functional; details: time 18-24 hrs
Pseudomonas aeruginosa [16] = experiment: Antibacterial activity against multidrug-resistant Pseudomonas aeruginosa CCARM 2109 strain assessed as bacterial growth inhibition measured at 18 to 24 hrs by microdilution assay; type: functional; details: time 18-24 hrs
Pseudomonas aeruginosa [17] = experiment: Synergistic antibacterial activity against multidrug-resistant Pseudomonas aeruginosa CCARM 2095 strain assessed as oxacillin fractional inhibitory concentration by checkerboard assay; type: functional
Staphylococcus aureus [18] = experiment: Additive antibacterial activity against multidrug-resistant Staphylococcus aureus CCARM 3089 strain assessed as ciprofloxacin fractional inhibitory concentration by checkerboard assay; type: functional
Staphylococcus aureus [19] = experiment: Synergistic antibacterial activity against multidrug-resistant Staphylococcus aureus CCARM 3089 strain assessed as oxacillin fractional inhibitory concentration by checkerboard assay; type: functional
Pseudomonas aeruginosa [20] = experiment: Synergistic antibacterial activity against multidrug-resistant Pseudomonas aeruginosa CCARM 2095 strain assessed as fractional inhibitory concentration index in presence of chloramphenicol by checkerboard assay; type: functional
Staphylococcus aureus [21] = experiment: Additive antibacterial activity against methicillin-resistant Staphylococcus aureus CCARM 3089 strain assessed as bacterial growth inhibition in presence of chloramphenicol by checkerboard assay; type: functional
RAW264.7 [22] = experiment: Antiinflammatory activity in LPS-induced mouse RAW264.7 cells assessed as reduction in iNOS mRNA expression level at 5 ug/ml measured after 18 hrs by RT-PCR assay relative to control; type: functional, cell-based; details: dose 5.0 µg/ml
Staphylococcus aureus [23] = experiment: Antibacterial activity against methicillin-resistant Staphylococcus aureus CCARM 3095 strain assessed as bacterial growth inhibition measured at 18 to 24 hrs by microdilution assay; type: functional; details: time 18-24 hrs
Staphylococcus aureus [24] = experiment: Antibacterial activity against Staphylococcus aureus KCTC 1621 strain assessed as bacterial growth inhibition measured at 18 to 24 hrs in presence of 2.5 mM CaCl2 by microdilution assay; type: functional; details: time 18-24 hrs
Staphylococcus aureus [25] = experiment: Synergistic antibacterial activity against methicillin-resistant Staphylococcus aureus CCARM 3089 strain assessed as bacterial growth inhibition in presence of oxacillin by checkerboard assay; type: functional
[26] = system: Staphylococcus epidermidis; experiment: Antibacterial activity against Staphylococcus epidermidis KCTC 1917 strain assessed as bacterial growth inhibition measured at 18 to 24 hrs by microdilution assay; type: functional; details: time 18-24 hrs
Pseudomonas aeruginosa [27] = experiment: Synergistic antibacterial activity against multidrug-resistant Pseudomonas aeruginosa CCARM 2095 strain assessed as oxacillin MIC by checkerboard assay; type: functional
Lipopolysaccharide (LPS) = experiment: Binding affinity to Escherichia coli O111:B4 lipopolysaccharide assessed as suppression of FTIC labeled LPS binding to mouse RAW264.7 cells at 20 ug/ml pretreated with LPS followed by compound addition by flow cytometer assay (reference value: 67.4%); type: cell-based; details: dose 20.0 µg/ml
Pseudomonas aeruginosa [28] = experiment: Synergistic antibacterial activity against multidrug-resistant Pseudomonas aeruginosa CCARM 2095 strain assessed as chloramphenicol fractional inhibitory concentration in presence of chloramphenicol by checkerboard assay; type: functional
Pseudomonas aeruginosa [29] = experiment: Synergistic antibacterial activity against multidrug-resistant Pseudomonas aeruginosa CCARM 2095 strain assessed as fractional inhibitory concentration index in presence of ciprofloxacin by checkerboard assay; type: functional
Staphylococcus aureus [30] = experiment: Additive antibacterial activity against methicillin-resistant Staphylococcus aureus CCARM 3089 strain assessed as chloramphenicol MIC by checkerboard assay; type: functional
Escherichia coli [31] = experiment: Antibacterial activity against Escherichia coli KCTC 1682 strain assessed as bacterial growth inhibition measured at 18 to 24 hrs in presence of 2.5 mM CaCl2 by microdilution assay; type: functional; details: time 18-24 hrs
Staphylococcus aureus [32] = experiment: Synergistic antibacterial activity against multidrug-resistant Staphylococcus aureus CCARM 3089 strain assessed as ciprofloxacin fractional inhibitory concentration by checkerboard assay; type: functional
Escherichia coli [33] = experiment: Antibacterial activity against Escherichia coli KCTC 1682 strain assessed as bacterial growth inhibition measured at 18 to 24 hrs in presence of 20% human serum by microdilution assay; type: functional; details: time 18-24 hrs
Pseudomonas aeruginosa [34] = experiment: Synergistic antibacterial activity against multidrug-resistant Pseudomonas aeruginosa CCARM 2095 strain assessed as ciprofloxacin fractional inhibitory concentration by checkerboard assay; type: functional

`NCCCCNc1nc(NCCCCN)nc(N2CC(Cc3ccccc3)N(c3nc(NCCCCN)nc(NCCCCN)n3)CC2Cc2ccccc2)n1` (stereo not drawn) was tested, and the MIC (Escherichia coli [1]) was 10.4 µM, the Flu intensity (Cell membrane) was 6.03% and the MHC (Erythrocyte) was > 332.8 µM. For the same compound, the “fractional inhibitory concentration index (FICI)” value (Pseudomonas aeruginosa [2]) was 0.5, the MIC (Pseudomonas aeruginosa [3]) was 8 µg/mL and the MIC (Pseudomonas aeruginosa [4]) was 41.6 µM (≈ 32 µg/mL). The MIC (Staphylococcus aureus [5]) was 64 µg/mL, the FIC (Staphylococcus aureus [6]) was 0.25 and the MIC (Enterococcus faecium) was 41.6 µM (≈ 32 µg/mL). For the same compound, the MIC (Staphylococcus aureus [7]) was 10.4 µM, the MIC (Escherichia coli [8]) was 10.4 µM and the MIC (Pseudomonas aeruginosa [9]) was 128 µg/mL. For the same compound, the “fractional inhibitory concentration index (FICI)” value (Staphylococcus aureus [10]) was 0.375, the Activity (Escherichia coli [11]) was “Active” and the Activity (Escherichia coli [12]) was “Active”. The Activity (RAW264.7 [13]) was “Active”, the MIC (Pseudomonas aeruginosa [14]) was 128 µg/mL and the MIC (Escherichia coli [15]) was 10.4 µM. For the same compound, the MIC (Pseudomonas aeruginosa [16]) was 10.4 µM (≈ 8 µg/mL), the FIC (Pseudomonas aeruginosa [17]) was 0.25 and the FIC (Staphylococcus aureus [18]) was 0.125. The FIC (Staphylococcus aureus [19]) was 0.25, the “fractional inhibitory concentration index (FICI)” value (Pseudomonas aeruginosa [20]) was 0.375 and the MIC (Staphylococcus aureus [21]) was 2 µg/mL. The Activity (RAW264.7 [22]) was “Active”, the MIC (Staphylococcus aureus [23]) was 10.4 µM (≈ 8 µg/mL) and the MIC (Staphylococcus aureus [24]) was 10.4 µM. For the same compound, the MIC (Staphylococcus aureus [25]) was 1 µg/mL, the MIC [26] was 5.2 µM (≈ 4 µg/mL) and the MIC (Pseudomonas aeruginosa [27]) was 256 µg/mL. For the same compound, the Flu intensity (Lipopolysaccharide (LPS)) was 19.5%, the FIC (Pseudomonas aeruginosa [28]) was 0.25 and the “fractional inhibitory concentration index (FICI)” value (Pseudomonas aeruginosa [29]) was 0.375. The MIC (Staphylococcus aureus [30]) was 64 µg/mL, the MIC (Escherichia coli [31]) was 10.4 µM and the FIC (Staphylococcus aureus [32]) was 0.125. It also gave an MIC (Escherichia coli [33]) of 10.4 µM and an FIC (Pseudomonas aeruginosa [34]) of 0.125.
